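The compound was tested at five concentrations on cells cultured in 96-well plates, with a 48-hour exposure period. Abbreviation: GI50, concentration required for 50% inhibition of growth.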 The source made the active and inactive calls. Rule as the data show it: active = GI50 up to about 1.1 µM and inactive = higher.
Key:
Experiment in all cases: DTP human tumour cell line panel, 48 h
KM12 = test system: KM12
SK-MEL-28 = test system: SK-MEL-28
RPMI-8226 = test system: RPMI-8226
DLD-1 = test system: DLD-1
SF-268 = test system: SF-268
SK-OV-3 = test system: SK-OV-3
CCRF-CEM = test system: CCRF-CEM
NCI-H522 = test system: NCI-H522
SK-MEL-2 = test system: SK-MEL-2
COLO 205 = test system: COLO 205
SK-MEL-5 = test system: SK-MEL-5
M14 = test system: M14
IGROV-1 = test system: IGROV-1
SR = test system: SR
SF-295 = test system: SF-295
HCC 2998 = test system: HCC 2998
A498 = test system: A498

Measured: GI50

COC1(OC)CC2CCCCC2=C(C)N1S(=O)(=O)c1ccccc1 (stereo unspecified)
inactive: KM12 > 100 µM | SK-MEL-28 > 100 µM | RPMI-8226 > 100 µM | DLD-1 > 100 µM | SF-268 > 100 µM | SK-OV-3 > 100 µM | CCRF-CEM > 100 µM | NCI-H522 > 100 µM | SK-MEL-2 > 100 µM | COLO 205 > 100 µM | SK-MEL-5 > 100 µM | M14 > 100 µM | IGROV-1 > 100 µM | SR > 100 µM | SF-295 > 100 µM

Oc1nc2cc(Cl)ccc2nc1/C(=N\Nc1ccccc1)C(O)c1ccc(Cl)c(Cl)c1 (stereo unspecified)
inactive: KM12 > 100 µM | RPMI-8226 > 100 µM | DLD-1 > 100 µM | SF-268 47.1 µM | SK-OV-3 > 100 µM | CCRF-CEM > 100 µM | NCI-H522 > 100 µM | HCC 2998 > 100 µM | SK-MEL-2 > 100 µM | COLO 205 > 100 µM | SK-MEL-5 > 100 µM | M14 > 100 µM | IGROV-1 > 100 µM | SR > 100 µM | SF-295 > 100 µM

CCN(CC)c1ccc(/N=N/c2ccc(-c3nc4cccn(C)c-4n3)cc2)cc1
inactive: KM12 8.95 µM | RPMI-8226 2.36 µM | DLD-1 4.83 µM | SF-268 13.2 µM | A498 14.9 µM | SK-OV-3 17.3 µM | CCRF-CEM 3.75 µM | NCI-H522 7.11 µM | SK-MEL-2 17.5 µM | COLO 205 14.3 µM | SK-MEL-5 4.8 µM | M14 9.33 µM | IGROV-1 10.7 µM | SR 2.51 µM | SF-295 5.04 µM

COC(=O)C(=O)C(C(C)=O)C(=O)NCc1ccc(OC)c(OC)c1 (stereo unspecified)
inactive: KM12 > 100 µM | SK-MEL-28 > 100 µM | DLD-1 > 100 µM | SF-268 > 100 µM | A498 > 100 µM | SK-OV-3 > 100 µM | CCRF-CEM > 100 µM | NCI-H522 > 100 µM | HCC 2998 > 100 µM | SK-MEL-2 > 100 µM | COLO 205 > 100 µM | SK-MEL-5 > 100 µM | M14 > 100 µM | IGROV-1 > 100 µM | SR > 100 µM | SF-295 > 100 µM

CC1(C)OC2C(=O)OC(COCc3ccccc3)C2O1 (stereo unspecified)
inactive: KM12 > 100 µM | SK-MEL-28 > 100 µM | RPMI-8226 > 100 µM | DLD-1 > 100 µM | SF-268 > 100 µM | A498 > 100 µM | CCRF-CEM > 100 µM | HCC 2998 > 100 µM | SK-MEL-2 > 100 µM | COLO 205 > 100 µM | SK-MEL-5 > 100 µM | M14 > 100 µM | IGROV-1 > 100 µM | SR 78.9 µM | SF-295 > 100 µM

— ChEMBL document CHEMBL1201862, “PubChem BioAssay data set” (2004)
